Reference: patent publication US20090093460A1, “Compositions” (AstraZeneca AB, priority 2003, published 2009)

Experiments:
rats [1] = experiment: D-amphetamine locomotor activity test; assay type: in vivo, rat; conditions: freebase, s.c.
Text: The methods and procedures used can be found in Warawa et al., J. Med. Chem., 2001, 44 (3), 372-389, and are incorporated herein by reference.

Adrenergic α2B = molecular target: T1, Adrenergic α2B (Homo sapiens, UniProt P18089); experiment: Radioligand binding Adrenergic α2B
T1 sequence (P18089 1-450): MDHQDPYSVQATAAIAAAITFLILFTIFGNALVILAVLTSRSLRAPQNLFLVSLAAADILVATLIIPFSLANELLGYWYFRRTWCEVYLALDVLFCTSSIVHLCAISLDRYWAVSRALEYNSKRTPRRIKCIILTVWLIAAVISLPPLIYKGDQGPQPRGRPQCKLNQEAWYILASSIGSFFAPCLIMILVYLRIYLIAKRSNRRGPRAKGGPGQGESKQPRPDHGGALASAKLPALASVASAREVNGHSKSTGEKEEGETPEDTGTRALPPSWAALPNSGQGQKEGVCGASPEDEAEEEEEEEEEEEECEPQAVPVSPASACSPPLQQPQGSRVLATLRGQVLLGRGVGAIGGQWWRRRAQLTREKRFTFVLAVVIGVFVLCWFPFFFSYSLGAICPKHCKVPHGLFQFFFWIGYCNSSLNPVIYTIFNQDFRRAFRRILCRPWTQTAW

[2] = molecular target: Adrenergic α1* Non-Selective; experiment: Radioligand binding 203500 Adrenergic α1* Non-Selective; design: species or system rat
Text: Receptor binding methods, α-adrenergic nonselective, are provided below.

H1 receptor = H1 receptor (Homo sapiens, UniProt P35367); experiment: H1 receptor binding
Sequence of H1 receptor (P35367 whole entry): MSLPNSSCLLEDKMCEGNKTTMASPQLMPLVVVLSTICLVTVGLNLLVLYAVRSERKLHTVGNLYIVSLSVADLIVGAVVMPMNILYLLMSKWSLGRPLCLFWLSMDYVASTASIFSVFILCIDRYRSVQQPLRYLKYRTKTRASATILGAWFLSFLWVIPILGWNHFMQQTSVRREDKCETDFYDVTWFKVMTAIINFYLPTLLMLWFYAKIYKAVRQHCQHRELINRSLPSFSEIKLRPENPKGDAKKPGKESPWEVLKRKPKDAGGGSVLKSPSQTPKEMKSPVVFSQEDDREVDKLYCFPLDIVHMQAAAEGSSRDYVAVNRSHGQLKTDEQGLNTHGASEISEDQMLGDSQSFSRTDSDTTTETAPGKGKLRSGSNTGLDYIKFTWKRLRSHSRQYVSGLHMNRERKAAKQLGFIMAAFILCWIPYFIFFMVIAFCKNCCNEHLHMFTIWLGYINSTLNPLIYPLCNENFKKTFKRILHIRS
Protocol: The H1 receptor binding method was carried out in accordance with the method set out in De Backer M D et al. Biochem. Biophys. Res Commun. 197 (3); 1601, 1993.

rats [3] = experiment: Geller-Seifter conflict test; assay type: in vivo, rat
Protocol: (§1) Anxiolytic activity of 11-piperazin-1-yldibenzo[b,f][1,4]thiazepine was tested in rats according to the Geller-Seifter conflict test. Efficacy results are presented in Table 1 and plasma levels in satellite exposure animals at 0.25 hours after administration are provided in Table 2.
Subjects: 30 Male Long Evans rats were used. Subjects weighed 350-450 g at the time of testing, and were food restricted to 85% of free feeding weight by post session feeding with approximately 15 g of standard rat chow per day. All animals had free access to water except during experimental testing. Subjects were individually housed throughout the course of the experiment under a 12 hour light/dark cycle.
Apparatus: Standard 2-lever operant chambers were used (Med Associates). The chambers were fitted with two retractable response levers and a stimulus lamp over each of the 2 levers. A pellet food dispenser delivered 45 mg food pellets, (Bio Serv) to a cup located inside of the chamber below and between the 2 response levers. A lamp at the top and back of the chamber served as houselights. […] All events in the chambers were controlled and monitored by a microprocessor. […]
Several doses were tested on a given day in different subjects. […] The dependent variables recorded were the rate of responding in unpunished and punished components (total responses/total time under the component), the number of shocks delivered. […]

[4] = Plasma levels in satellite exposure animals (Geller-Seifter); assay type: in vivo; conditions: Long Evans, rat, subcutaneous, 0.25 hours after administration
Protocol: as §1
Several doses were tested on a given day in different subjects. Each dose, then, was tested in a different sub-set of rats. The dependent variables recorded were the rate of responding in unpunished and punished components (total responses/total time under the component), the number of shocks delivered. A selective anxiolytic effect is defined as an increase in responding in the […] components with relatively less or no effect on responding in […] components. t-Tests were used to compare mean of the control's rate of responding on vehicle day of the rats used for a specific dose to the same rats means following delivery of each dose of compound (for only the rats used within each dose). Brains, CSF and plasma were collected in a satellite group of rats that match the Geller-Seifter rats to evaluate exposure levels.
Exposure sampling: In weight and feeding status-matched subjects, terminal plasma, whole brain and CSF samples were collected. Four rats were used for each of the 4 doses of drug, with samples obtained 15 minutes after dosing.

D2 receptors = molecular target: T2, D2 receptors (Homo sapiens, UniProt P14416); design: species or system primate; conditions: in vivo
T2 construct: from tissue; host or cells: brain of living primate subjects (PET)
T2 sequence (P14416 whole entry): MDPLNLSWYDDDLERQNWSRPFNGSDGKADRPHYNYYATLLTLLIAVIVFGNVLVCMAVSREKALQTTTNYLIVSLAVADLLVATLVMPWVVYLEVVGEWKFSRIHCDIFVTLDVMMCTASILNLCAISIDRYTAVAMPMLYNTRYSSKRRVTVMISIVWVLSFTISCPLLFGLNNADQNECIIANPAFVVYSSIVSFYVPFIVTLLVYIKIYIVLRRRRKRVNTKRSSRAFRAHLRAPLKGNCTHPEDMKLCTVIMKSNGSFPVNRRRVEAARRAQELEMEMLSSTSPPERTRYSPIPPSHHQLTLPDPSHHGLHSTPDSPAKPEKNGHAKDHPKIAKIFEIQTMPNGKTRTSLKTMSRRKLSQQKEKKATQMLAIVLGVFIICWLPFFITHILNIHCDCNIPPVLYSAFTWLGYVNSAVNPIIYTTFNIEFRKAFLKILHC

5-HT2A receptors = molecular target: T3, 5-HT2A receptors (Homo sapiens, UniProt P28223); experiment: PET scans of primate subjects, 5-HT2A occupancy; assay type: in vivo; conditions: preliminary PET scans
T3 construct: from tissue; host or cells: brain of living primate subjects (PET)
T3 sequence (P28223 whole entry): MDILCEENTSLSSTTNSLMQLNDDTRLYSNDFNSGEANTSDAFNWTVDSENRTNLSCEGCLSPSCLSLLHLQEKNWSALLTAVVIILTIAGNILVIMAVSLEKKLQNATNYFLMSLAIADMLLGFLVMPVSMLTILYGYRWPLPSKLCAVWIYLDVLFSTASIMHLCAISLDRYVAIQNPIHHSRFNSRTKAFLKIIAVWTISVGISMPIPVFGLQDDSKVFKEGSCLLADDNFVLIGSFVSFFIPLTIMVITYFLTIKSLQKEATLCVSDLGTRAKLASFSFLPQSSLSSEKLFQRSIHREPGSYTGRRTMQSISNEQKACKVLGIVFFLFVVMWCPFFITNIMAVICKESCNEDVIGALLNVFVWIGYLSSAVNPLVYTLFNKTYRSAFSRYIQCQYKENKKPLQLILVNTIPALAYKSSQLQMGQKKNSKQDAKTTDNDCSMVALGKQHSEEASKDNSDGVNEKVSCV
Text: (§2) The compound of Formula I is a dibenzothiazepine that has shown antidopaminergic activity.

5HT Transporter = molecular target: T4, 5HT Transporter (Homo sapiens, UniProt P31645); experiment: PET scans of primate subjects, 5HT Transporter occupancy; assay type: in vivo; conditions: preliminary PET scans
T4 construct: from tissue; host or cells: brain of living primate subjects (PET)
T4 sequence (P31645 whole entry, species assumed): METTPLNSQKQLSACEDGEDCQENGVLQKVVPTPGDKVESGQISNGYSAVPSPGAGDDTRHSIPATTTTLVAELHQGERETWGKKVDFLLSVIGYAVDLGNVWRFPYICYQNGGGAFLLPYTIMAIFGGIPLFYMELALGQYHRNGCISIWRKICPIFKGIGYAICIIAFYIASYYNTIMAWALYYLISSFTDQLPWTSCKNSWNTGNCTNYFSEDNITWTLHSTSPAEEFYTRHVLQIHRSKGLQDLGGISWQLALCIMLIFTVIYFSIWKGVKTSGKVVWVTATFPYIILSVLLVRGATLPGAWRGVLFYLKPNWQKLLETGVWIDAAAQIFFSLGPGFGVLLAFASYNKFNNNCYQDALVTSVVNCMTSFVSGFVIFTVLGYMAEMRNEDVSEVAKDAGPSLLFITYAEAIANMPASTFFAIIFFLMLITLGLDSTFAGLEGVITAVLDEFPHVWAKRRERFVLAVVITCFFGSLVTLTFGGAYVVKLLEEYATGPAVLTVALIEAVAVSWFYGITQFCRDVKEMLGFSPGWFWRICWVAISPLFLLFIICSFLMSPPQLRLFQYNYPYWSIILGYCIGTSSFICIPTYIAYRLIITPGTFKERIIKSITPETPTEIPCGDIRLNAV
Text: as §2

In the case of `c1ccc2c(c1)N=C(N1CCNCC1)c1ccccc1S2` [11-piperazin-1-yldibenzo[b,f][1,4]thiazepine], the “in vivo antipsychotic activity” value (rats [1]) is reported as “not found to be efficacious”, the “in vivo antipsychotic activity” value (rats [1]; listed as compound of Formula I) is reported as “not shown to be efficacious” and the IC50 (Adrenergic α2B) is reported as 451 ± 97 nM. The Ki (Adrenergic α2B) was 206 ± 44.5 nM, the n (Adrenergic α2B) was 0.902 ± 0.055 and the inhibition at 1 µM (Adrenergic α2B; 1 μM) was 62%. The IC50 [2] was 69.3 nM, the Ki [2] was 37.2 nM and the “% INH.” value ([2]; 0.1 μM) was 61%. For the same molecule, the Ki (H1 receptor) was 1.15 nM, the “rates of responding in the punished component” value (rats [3]; doses of 2, 5, and 10 mg/kg s.c.) was “Significant increases” and the Inactive dose (rats [3]; rats, 15 minute pre-treatment) was 1 mg/kg s.c. It also gave a concentration at 0.25 h ([4]; 2 mg/kg s.c.) of 4.8 µM, a concentration at 0.25 h ([4]; 5 mg/kg s.c.) of 12.1 µM and a concentration at 0.25 h ([4]; 10 mg/kg s.c.) of 19.4 µM. The “receptor occupancy by PET” value (D2 receptors) was “occupies”, the “receptor occupancy by PET” value (5-HT2A receptors) was “occupies” and the “transporter occupancy by PET” value (5HT Transporter) was “occupies”.
